Test results: patent US20260250337A1, “HYBRID ANTIMICROBIAL PEPTIDES” (UNIVERSIDADE FEDERAL DO ABC, priority 2023, published 2026)
No end group written: not given here.

What was measured:
[1] = system: bacterial strains; assay: Antimicrobial activity over the panel of strains; type: cell-based; details: range over strains tested
Method: Initially, the antimicrobial activity was determined by liquid growth inhibition assays, as previously described by Pedron et al.^62. Briefly, Peptone Broth and Potato Dextrose Broth (Invitrogen) were used for antibacterial and antifungal assays, respectively. Two-fold serial dilutions of peptides (0.09-50 μmol L^−1) and microorganisms (Serratia marcescens ATCC 4112, Enterobacter cloacae β-12, Micrococcus luteus A270, Bacillus megaterium ATCC 10778, Bacillus subtilis ATCC 6633, Candida albicans MDM8, and Candida tropicalis IOC 4560) were incubated at 37° C. for 18 h (for bacteria) or 24 h (for fungi), and microbial growth was assessed by absorbance measurements at 595 nm. Experiments were performed in three biological repeats.
(§1) Method. The minimal inhibitory concentration (MIC) against the ESKAPE pathogens was determined using the broth microdilution method^81, 82 in Luria-Bertani (LB) medium. The MIC value was defined as the lowest concentration of peptide at which no microbial growth was observed. A. baumannii ATCC19606, E. coli ATCC11775, E. coli AIC221, E. coli AIC222, K. pneumoniae ATCC13883, S. aureus ATCC12600 P. aeruginosa PAO1, and P. aeruginosa PA14 were incubated on agar plates, and after 24 h, three isolated colonies were inoculated to 5 mL of Luria-Bertani (LB) broth and maintained at 37° C. overnight with shaking. Peptides were then added to 96-well polystyrene microtiter plates at concentrations ranging from 0 to 128 μmol L^−1, and 5×10^5 CFU mL^−1 of each bacterium was inoculated in each well. The plates were incubated at 37° C. for 24 h. Bacterial growth was measured using a microplate reader at 610 nm. Three independent replicates were performed.

[2] = system: P. aeruginosa; assay: MIC against P. aeruginosa; type: cell-based; details: strain not given
Method: as §1

ILGAILNVLKSLG-NH2 [PV, Ile-Leu-Gly-Ala-Ile-Leu-Asn-Val-Leu-Lys-Ser-Leu-Gly]
MIC range of the peptide over the strains [1]: 3.1 to 64 µM | MIC against P. aeruginosa [2]: 128 µM
